Experimental data as given in patent publication US20160257697A1, “THIOPHENE-SUBSTITUTED TETRACYCLIC COMPOUNDS AND METHODS OFUSE THEREOF FOR THE TREATMENT OF VIRAL DISEASES” (priority 2013, published 2016).
Like-named read-outs stand apart in the source and are kept apart here.

How the values were obtained:
Assay in all cases: microbe, parasite or virus in culture
Format in all cases: cell-based, Hepatitis C virus (HCV)
HCV replicon 1AY93H = settings: Replicon Assay A
Method in brief: (§1)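 HCV replicon RNA levels were quantified by TaqMan RT-PCR after 3-day compound exposure (0.5% DMSO, 5% FBS). Cyclophilin RNA, co-amplified in the same reaction, served as endogenous control; Ct values were converted to RNA amounts using linear regression standard curves.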

HCV replicon 1A = settings: Replicon Assay A
Method in brief: as §1

HCV replicon 2B = settings: Replicon Assay A
Method in brief: as §1

HCV replicon 1B = settings: Replicon Assay B
Protocol: (§2) In an alternate assay (“Replicon Assay B”), 1000 cells were seeded per well in a 384-well collagen coated black plate from Greiner bio-one (Cat #781946) in 5% FBS. Inhibitors of this invention were added at 24 h post-seeding, and the plates were incubated for 3 days. Cells were subsequently lysed with Qiagen lysis buffer (Cat #1062731) to extract the RNA. HCV replicon RNA level was measured by real-time PCR using the RNA-to-CT kit from Applied Biosystem (Cat #4392656) and genotype-specific primers and probes. The amplicon was located within NS5B. […] (SEQ. ID NO. 2); the probe sequence was FAM-labeled […] (SEQ. ID NO. 3).
(§3) The real-time RT-PCR reactions were run on ABI PRISM 7900HT or Viia7 Sequence Detection System using the following program: 48° C. for 30 minutes, 95° C. for 10 minutes, 40 cycles of 95° C. for 15 sec, 60° C. for 1 minutes.
(§4) Data for replicons 1A, 1AY93H and 2B were obtained using Replicon Assay A and data for replicons 1AQ30D and 1B were obtained using Replicon Assay B.

HCV replicon 1AQ30D = settings: Hepatitis C virus, Replicon Assay B
Protocol: as §2, §3, §4

[1] = read-out: 1A Y93H IC50, replicon 1AY93H
[2] = read-out: 1A Q30D IC50 (nM), replicon 1AQ30D
[3] = read-out: 1A Y93H IC50, HCV replicon 1A Y93H
[4] = read-out: 2B IC50, HCV replicon 2B

Compound `COC(=O)N[C@H](C(=O)N1CCC[C@H]1c1ncc(-c2cc(F)c3c(c2)OC(c2ccc(C4CC4)s2)n2c-3c(C)c3cc(-c4cnc([C@@H]5CCCN5C(=O)[C@@H](NC(=O)OC)C(C)C)[nH]4)ccc32)[nH]1)C(C)C` (single isomer, unassigned) [Compound 841] has an IC50 (HCV replicon 1AY93H; HCV replicon 1A Y93H, read-out: 1A Y93H IC50) of 0.849 nM, an IC50 (HCV replicon 1A; HCV replicon 1A) of 0.0026 nM and an IC50 (HCV replicon 2B; HCV replicon 2B, read-out: 2B IC50) of 0.523 nM. It also gave an IC50 (HCV replicon 1B; HCV replicon 1B) of 0.0017 nM.

In the case of `COC(=O)N[C@H](C(=O)N1CCC[C@H]1c1ncc(-c2cc(F)c3c(c2)OC(c2ccc(OC)s2)n2c-3cc3cc(-c4cnc([C@@H]5CCCN5C(=O)[C@@H](NC(=O)OC)C(C)C)[nH]4)ccc32)[nH]1)C(C)C` (single isomer, unassigned) [Compound 20], the IC50 (HCV replicon 1AY93H; [1]) is reported as 0.014 nM, the IC50 (HCV replicon 2B; read-out: 2B IC50, replicon 2B) is reported as 0.051 nM and the IC50 (HCV replicon 1AQ30D; [2]) is reported as 0.38 nM. For the same compound, the IC50 (HCV replicon 1B; Hepatitis C virus, replicon 1B) was 0.0011 nM.

`COC(=O)N[C@H](C(=O)N1CCC[C@H]1c1ncc(-c2cc(F)c3c(c2)OC(c2ccc(C(C)C)s2)n2c-3cc3cc(-c4cnc([C@@H]5CCCN5C(=O)[C@@H](NC(=O)OC)C5CCOCC5)[nH]4)ccc32)[nH]1)C(C)C` (single isomer, unassigned) [Compound 345] was tested, and the IC50 (HCV replicon 1AY93H; [1]) was 0.0012 nM, the IC50 (HCV replicon 2B; read-out: 2B IC50, replicon 2B) was 0.0072 nM and the IC50 (HCV replicon 1AQ30D; [2]) was 0.0235 nM.

`COC(=O)N[C@H](C(=O)N1CCC[C@H]1c1ncc(-c2cc(F)c3c(c2)OC(c2ccc(F)s2)n2c-3cc3cc(-c4cnc([C@@H]5CCCN5C(=O)[C@@H](NC(=O)OC)C(C)C)[nH]4)ccc32)[nH]1)C(C)C` (single isomer, unassigned) [Compound 13] gave an IC50 (HCV replicon 1AY93H; [1]) of 2.1 nM, an IC50 (HCV replicon 1A; Hepatitis C virus, replicon 1A) of 0.0019 nM and an IC50 (HCV replicon 2B; read-out: 2B IC50, replicon 2B) of 3.79 nM. The IC50 (HCV replicon 1B; Hepatitis C virus, replicon 1B) was 0.0023 nM.

`COC(=O)NC(C(=O)N1CCC[C@H]1c1ncc(-c2ccc3c(c2)cc2n3C(c3ccc(C4CC4)s3)Oc3cc(-c4cnc([C@@H]5CCCN5C(=O)[C@@H](NC(=O)OC)C(C)C)[nH]4)cc(F)c3-2)[nH]1)C1CC(C)(C)OC(C)(C)C1` (single isomer, unassigned) [Compound 421] was tested, and the IC50 (HCV replicon 1AY93H; [3]) was 0.0127 nM, the IC50 (HCV replicon 1A; HCV replicon 1A) was 0.0023 nM and the IC50 (HCV replicon 2B; [4]) was 0.0184 nM. For the same compound, the IC50 (HCV replicon 1AQ30D; read-out: 1A Q30D IC50, HCV replicon 1A Q30D) was 0.126 nM.

`COC(=O)N[C@H](C(=O)N1C[C@H](F)C[C@H]1c1cnc(-c2ccc3c(c2)cc2n3C(c3cc4ccccc4s3)Oc3cc(-c4cnc([C@@H]5C[C@@H](F)CN5C(=O)[C@@H](NC(=O)OC)C(C)C)[nH]4)ccc3-2)[nH]1)C(C)C` (single isomer, unassigned) [Compound 806] was tested, and the IC50 (HCV replicon 1AY93H; [3]) was 0.023 nM, the IC50 (HCV replicon 1A; HCV replicon 1A) was 0.041 nM and the IC50 (HCV replicon 2B; [4]) was 42.9 nM. The IC50 (HCV replicon 1B; HCV replicon 1B) was 0.009 nM.

With `COC(=O)N[C@H](C(=O)N1CCC[C@H]1c1ncc(-c2cc(F)c3c(c2)OC(c2ccc(C4CC4)s2)n2c-3cc3cc(-c4cnc([C@@H]5CCCN5C(=O)[C@@H](NC(=O)OC)C(C)C)[nH]4)ccc32)[nH]1)C(C)C` (single isomer, unassigned) [Compound 5] the IC50 (HCV replicon 1AY93H; Hepatitis C virus, read-out: 1A Y93H IC50 (nM), replicon 1AY93H) was 0.95 nM, the IC50 (HCV replicon 1A; Hepatitis C virus, replicon 1A) was 0.0046 nM and the IC50 (HCV replicon 2B; Hepatitis C virus, read-out: 2B IC50 (nM), replicon 2B) was 2.08 nM. For the same compound, the IC50 (HCV replicon 1AQ30D; [2]) was 28.3 nM.

Work on `COC(=O)NC(C(=O)N1CCC[C@H]1c1ncc(-c2cc(F)c3c(c2)OC(c2ccc(C4CC4)s2)n2c-3cc3cc(-c4cnc([C@@H]5CCCN5C(=O)[C@@H](NC(=O)OC)C5CCOCC5)[nH]4)ccc32)[nH]1)C(C)(C)F` (single isomer, unassigned) [Compound 169] yielded an IC50 (HCV replicon 1AY93H; [1]) of 0.045 nM, an IC50 (HCV replicon 1A; replicon 1A) of 0.0012 nM and an IC50 (HCV replicon 2B; read-out: 2B IC50, replicon 2B) of 0.075 nM. The IC50 (HCV replicon 1B; Hepatitis C virus, replicon 1B) was 0.0034 nM.

`COC(=O)NC(C(=O)N1CCC[C@H]1c1ncc(-c2ccc3c(c2)cc2n3C(c3cc(C)c(C)s3)Oc3cc(-c4cnc([C@@H]5CCCN5C(=O)[C@@H](NC(=O)OC)C5CCOCC5)[nH]4)cc(F)c3-2)[nH]1)C(C)(C)F` (single isomer, unassigned) [Compound 130] gave an IC50 (HCV replicon 1AY93H; [1]) of 0.24 nM, an IC50 (HCV replicon 1A; replicon 1A) of 0.0017 nM and an IC50 (HCV replicon 2B; read-out: 2B IC50, replicon 2B) of 0.24 nM. It also gave an IC50 (HCV replicon 1B; Hepatitis C virus, replicon 1B) of 0.0036 nM.

`CCc1ccc(C2Oc3cc(-c4c[nH]c([C@@H]5CCCN5C(=O)[C@@H](NC(=O)OC)C(C)C)n4)ccc3-c3cc4c(F)c(-c5c[nH]c([C@@H]6CCCN6C(=O)C(NC(=O)OC)C6C[C@@H](C)O[C@@H](C)C6)n5)ccc4n32)s1` (single isomer, unassigned) [Compound 361] was tested, and the IC50 (HCV replicon 1AY93H; [1]) was 0.138 nM, the IC50 (HCV replicon 1A; replicon 1A) was 0.0036 nM and the IC50 (HCV replicon 2B; read-out: 2B IC50, replicon 2B) was 0.0389 nM. For the same compound, the IC50 (HCV replicon 1B; Hepatitis C virus, replicon 1B) was 0.0035 nM.
